Our source for the inhibition and viability values is ChEMBL document CHEMBL3600282, “Four new ginsenosides from red ginseng with inhibitory activity on melanogenesis in melanoma cells” (Bioorg Med Chem Lett, 2015).

Data set [1] deals with B16. Description: Inhibition of alpha-MSH-induced melanogenesis in mouse B16 cells assessed as reduction of melanin content after 48 hrs. It counts as functional, cell-based.
The subject of data set [2] is B16. Briefly: Inhibition of alpha-MSH-induced melanogenesis in mouse B16 cells assessed as reduction of melanin content at 100 uM after 48 hrs. It counts as functional, cell-based.
A short description of data set [3]: Cytotoxicity against mouse B16 cells assessed as cell viability up to 100 uM after 48 hrs by MTT assay. It counts as cell-based. The note with it: read-out: Activity. (Tetrazolium assays rely on reduction of a dye to a coloured formazan, in cell work by metabolically active cells.)
The target in data set [4] is T1, Tyrosinase (Mus musculus) (UniProt P11344).
T1 sequence (whole entry): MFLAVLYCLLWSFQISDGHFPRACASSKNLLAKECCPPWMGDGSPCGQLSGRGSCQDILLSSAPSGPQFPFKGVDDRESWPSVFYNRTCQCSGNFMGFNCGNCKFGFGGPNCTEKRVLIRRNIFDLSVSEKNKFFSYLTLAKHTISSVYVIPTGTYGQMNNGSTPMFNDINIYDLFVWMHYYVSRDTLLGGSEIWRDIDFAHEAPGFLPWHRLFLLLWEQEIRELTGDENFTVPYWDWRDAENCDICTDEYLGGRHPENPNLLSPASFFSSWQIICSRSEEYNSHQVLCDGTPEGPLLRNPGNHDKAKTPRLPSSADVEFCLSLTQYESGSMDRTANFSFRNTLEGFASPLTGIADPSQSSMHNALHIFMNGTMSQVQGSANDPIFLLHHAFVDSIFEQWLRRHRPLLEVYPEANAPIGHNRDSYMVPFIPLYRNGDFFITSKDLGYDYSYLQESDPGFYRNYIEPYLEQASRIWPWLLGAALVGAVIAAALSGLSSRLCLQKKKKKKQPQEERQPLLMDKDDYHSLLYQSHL
Briefly: Inhibition of alpha-MSH-induced tyrosinase activity in mouse B16 cells assessed as reduction of melanin content using L-DOPA as substrate after 2 hrs. It counts as cell-based.

Data set [5] relates to B16. Briefly: Inhibition of alpha-MSH-induced melanogenesis in mouse B16 cells assessed as reduction of melanin content at 25 to 100 uM after 48 hrs. It is filed as functional, cell-based.
Data set [6] has as its system B16. Briefly: Inhibition of alpha-MSH-induced melanogenesis in mouse B16 cells assessed as reduction of melanin content at 200 uM after 48 hrs. It is filed as functional, cell-based.

The source made the active and inactive calls. The calls are words filed in the database; no cut-off is given here.

In the case of `COC(/C=C(\C)[C@H]1CC[C@]2(C)[C@@H]1[C@H](O)C[C@@H]1[C@@]3(C)CC[C@H](O[C@@H]4O[C@H](CO)[C@@H](O)[C@H](O)[C@H]4O[C@@H]4O[C@H](CO)[C@@H](O)[C@H](O)[C@H]4O)C(C)(C)[C@@H]3CC[C@]12C)C1OC1(C)C` (stereo partly drawn), the inhibition entry (with B16 [1]; in data set [4]) was “Dose-dependent effect” each time. Further, the inhibition result in the data set with B16 [2] was “Active”. For the same compound, in data set [3], the viability at 48 h is 95%.
`CCCCOC(=O)[C@H]1O[C@@H](O[C@H]2CC[C@]3(C)[C@H]4CC=C5[C@@H]6CC(C)(C)CC[C@]6(C(=O)O[C@@H]6O[C@H](CO)[C@@H](O)[C@H](O)[C@H]6O)CC[C@@]5(C)[C@]4(C)CC[C@H]3C2(C)C)[C@H](O[C@@H]2O[C@H](CO)[C@@H](O)[C@H](O)[C@H]2O)[C@@H](O)[C@@H]1O`: in data set [3], the viability at 48 h stood at 95%. Also, in the data set on B16 [5], the inhibition result is “inactive”.
Turning to `CC(C)=CCC[C@](C)(O)[C@H]1CC[C@]2(C)[C@@H]1[C@H](O)C[C@@H]1[C@@]3(C)CC[C@H](O)C(C)(C)[C@@H]3[C@@H](O[C@@H]3O[C@H](CO)[C@@H](O[C@H]4O[C@H](CO)[C@@H](O)[C@H](O)[C@H]4O)[C@H](O)[C@H]3O)C[C@]12C`, in data set [3], the viability at 48 h was 95%. The inhibition entry in the data set on B16 [5] was “inactive”.
Regarding `CC(=O)OC[C@H]1O[C@@H](O[C@H]2[C@H](O[C@H]3CC[C@]4(C)[C@H]5C[C@@H](O)[C@@H]6[C@@H](/C(C)=C\CC=C(C)C)CC[C@@]6(C)[C@]5(C)CC[C@H]4C3(C)C)O[C@H](CO)[C@@H](O)[C@@H]2O)[C@H](O)[C@@H](O)[C@@H]1O`, the inhibition result (with B16 [1]; in data set [4]) was “Dose-dependent effect” throughout. Also, the inhibition result in the data set with B16 [2] was “Active”. Moreover, in data set [3], the viability at 48 h was determined as 95%.
As to `OC[C@H]1O[C@@H](Oc2ccc(O)cc2)[C@H](O)[C@@H](O)[C@@H]1O`, the inhibition result in the data set with B16 [6] is “Active”.
